Patent US20200108029A1, “METHODS AND SYSTEMS FOR TREATING OVERWEIGHT INDIVIDUALS” (LiveLight LLC, priority 2013, published 2020)
Read-outs that look alike come from different tables or passages of the source.

Assays:
[1] = system: overweight (7) and obese (16) patients; test: study of customized weekly dose patterns of moderate and low dose phentermine capsules; format: in vivo, human
Procedure: A study was performed including 23 overweight (7) and obese (16) patients whose average initial weight was 207 lb. Inclusion and exclusion criteria were similar to those of many published phentermine clinical trials. The patients were offered conventional dietary advice, provided meal replacements in the form of one to two commercial shakes (Usana Health Sciences, Salt Lake City, Utah), and were encouraged to exercise. Historical controls available from many published data about weight loss that involved dietary advice, meal replacement, and encouragement to exercise were used.
During the study, each patient was prescribed a customized dose pattern level of moderate capsules of phentermine and low dose capsules of phentermine that were provided on a biweekly basis in a 7-compartment blister pack where each blister contained a daily red capsule. The patient was instructed to take the appropriate daily capsule in the morning around breakfast time. The pack was labeled “each capsule contains up to 35 mg of phentermine.” In this example, each capsule contained 35 mg, 15 mg, 10 mg, 7.5 mg or 0 mg of phentermine in addition to inert excipients. The patients received two dose pattern weekly medications strips every two weeks.
In addition to the pills, patients were given a smartphone app or access to a browser-based reporting form where they could report their daily weight, drug compliance, hunger level, exercise level, and side effects experienced. The data was fed directly to a database, which was analyzed by the physician administering the trial and their assistant.
The algorithm for treatment included the following steps:
(1) Each patient was started on a weight loss dose pattern with a midlevel weekly phentermine dose pattern level 2 as shown in FIG. 2. […]
(2) The maximum tolerated weight loss dose pattern for the patient was determined by reviewing the patient's current dose level pattern and his or her electronically reported daily hunger level and side effects such as sleeplessness. […]

patients = test: pooled previously published phentermine clinical trials (FIG. 1A); format: in vivo, human; conditions: dropouts included as having lost no net weight
From the text: Studies using phentermine alone or phentermine mixed with a placebo have reported significant patient dropout rates in a typical 8-12 weeks phentermine clinical trial (Lucey et al “Chlorphentermine, A New ‘Appetite Suppressant,’ A Cross-Over Double-Blind Trial,” Ulster Med. J., 1962, pages 181-184 reports a 66% dropout rate, Kim et al., “Effects on Weight Reduction and Safety of Short-Term Phentermine Administration in Korean Obese People,” Yonsei Med J., 2006 Vol. 47, No. 5, pages 614-625 reports a 47% dropout rate, Truant reports a 66% dropout rate, Munro reports a 41% dropout rate, and Langlois et al., “A Double-Blind Clinical Evaluation of the Safety and Efficacy of Phentermine Hydrochloride (Fastin) in the Treatment of Exogenous Obesity,” Curr Ther Res Clin Exp., 1974, Vol. 16, No. 4, pages 289-296 reports a 41% dropout rate). For broad clinical adoption, the intent to treat weight loss, e.g., the average weight loss of all the patients that were enrolled in the study, is the key measure.
FIG. 1A is a table showing the results of various previously published clinical trials using phentermine.

obesity patients = conditions: Munro, cited from earlier work
[2] = system: patients in medical weight reduction; conditions: Truant, cited from earlier work

CC(C)(N)Cc1ccccc1 [phentermine, α-dimethyl-β-phenylethylamine]
patients failing to complete the first 12 weeks in the program ([1]; first 12 weeks, indicates tolerability of the regimen): None of the patients failed to complete the first 12 weeks | average twelve-week weight loss ([1]; hunger and weight responsive patient-specific regimen, 12 weeks, intent to treat basis): 23 lb | reported side effects rate ([1]; once the initial dose was titrated): Lower reported side effects rate | intent to treat weight loss (patients): 9.0 lb | average weight loss, intermittent versus continuous (obesity patients; 12-week treatment with weeks 4 through 8 on placebo versus phentermine for all 12 weeks): lost as much weigh on average | weight loss (obesity patients; alternating monthly placebo/active trial, twelve weeks): 15 lbs | weight lost ([2]; phentermine for twelve weeks except placebo on weeks 4, 8, and 12): 16.6 lb | weight lost ([2]; phentermine for twelve weeks): 18.8 lb
